One data set in a line: Solubility assay. To be noted: PBS buffer, aqueous buffer, kinetic from dmso stock, PBS pH 7.4, room temperature. The format is physicochemical. The method, then: Next, 5 μL of this reference stock plate was mixed with 70 μL of 1-propanol and 75 μL of PBS (pH 7.4) to make the reference plate, and the UV spectrum (250–500 nm) of the reference plate was read. Then, 6 μL of 10 mM test compound stock was added to 600 μL of PBS, pH 7.4, in a 96-well storage plate and mixed. The storage plate was sealed and incubated at room temperature for 18 h. The suspension was then filtered through a 96-well filter plate (pION Inc.). Next, 75 μL of filtrate was mixed with 75 μL of 1-propanol to make the sample plate, and the UV spectrum of the sample plate was read. Calculations were done using μSOL Evolution software based on the area under the curve (AUC) of the UV spectrum of the sample plate and the reference plate. All compounds were tested in triplicate.

The test system of data set [1] is P. falciparum strain 3D7 intraerythrocytic forms. Further details: method as in PubChem web site, http://pubchem.ncbi.nlm.nih.gov/. To be noted: reported values; ref PubChem web site, http://pubchem.ncbi.nlm.nih.gov/; read-out: EC50 3D7 In vitro; cited from earlier work.

Converted amounts (≈) assume the structure as drawn.

With `CC1CCCCN1S(=O)(=O)c1ccc2nc(Nc3cccc(C#N)c3)ccc2c1` (stereo not shown) [Compound 13], in the data set “Solubility assay”, the concentration in solution (solubility at 18 h) was 0.9 ± 1.2 µM (≈ 0.366 µg/mL). With `CC1CCCCN1S(=O)(=O)c1ccc2nc(Nc3ccccc3)ccc2c1` (stereo not shown) [Compound 10], the solubility at 18 h in “Solubility assay” was determined as 0.4 µM (≈ 0.153 µg/mL). As for `COc1cc(Nc2ccc3cc(S(=O)(=O)N4CCCCC4C)ccc3n2)cc(OC)c1OC` (stereo not shown) [Compound 1], the concentration giving a half-maximal response (EC50) in data set [1] was 1240 nM. The molecule also showed a solubility at 18 h in “Solubility assay” of 0.5 ± 0.4 µM (≈ 0.236 µg/mL).

(Values after paper PMC4404333, “Identification of Selective Inhibitors of the Plasmodium falciparum Hexose Transporter PfHT by Screening Focused Libraries of Anti-Malarial Compounds” (PLoS ONE, 2015).)
